Data reported in patent US4576951A, “Proglumide, pharmaceutical preparations and compositions including it for use in human pain relief” (priority 1983, dated 1986).
Where two headings read alike, the source gives them in different places.

How the values were obtained:
[1] = Potentiation of analgesic effect of enkephalinamide (DALA) i.c.v. (Tail Flick test); format: in vivo, rats; conditions: alone i.c.v.: proglumide 1 or DALA 10 μg/kg
Method: Potentiation of the analgesic activities of enkephalins induced by proglumide
In order to check one of the possible mechanisms for the action of proglumide, that is its possible inhibition of the enzymatic degradation of endogenous enkephalins, the following experiment was carried out:
A cannula was implanted in the right lateral ventricle of male rats having a weight of 150-200 g (groups of five animals were used) in order to allow the intracerebroventricular (I.C.V.) administration of drugs according to the method of Noble et al (Life Science 6, (1970) 281-291). […]

[2] = format: in vivo, rats; conditions: morphine 5 mg/kg i.p. repeated
Method: Activity of proglumide as an antagonist to the tolerance induced by opiates
Groups of five male rats having a weight of about 200-250 g were used.
The determination of the pain threshold was effected 1, 3, 6, 9 and 12 hours after the first treatment by the Tail Flick test.
The data given in Table 5 indicate the percentage variations in the latency (appearance of pain) before and after treatment with the drugs.

[3] = format: in vivo, rats
Method: The method is that described by Harris et al. (J. Pharmcol. Exp. Ther. 143 (1964) 141-148).
Male rats are used which have a weight of about 150-200 g and which have not been fasting. A point is chosen on the tail and this is irradiated by a heat source (75° C.) and the time (in seconds) for which the animal remains without moving its tail is measured.
A maximum period of time under the heat source of 8 seconds is chosen after which the animal is, in any case, removed in order to avoid tissue damage. The measurement is effected before (controls) and after treatment with the drugs. […] The percentage variation is calculated for each individual animal by the following formula: [formula] (time measurements are in seconds)
The measurements are carried out 10, 20, 30, 45, 60 and 90 minutes after treatment with the analgesics.

[4] = Randall-Selitto test: analgesia produced by opiates; format: in vivo, rats; conditions: for t (vs controls): Student t
Method: Analgesic activity in the Randall-Selitto test
The method is that described by Winters et al (J. Pharmacol. Exp. Ther. 150, 165 (1965). Groups of five female rats having an average weight of about 100 g and which have not been fasting are used. A 20% saline solution of yeast is administered into the sub-plantar region of the right hind leg.
The compounds to be tested are administered s.c. 2 hours after the injection of inflammatory agent 0.5 hours after the administration of the drugs, the pain threshold is determined by measuring the pressure needed to induce a flight reaction in the animal. The results obtained are given in Table No. 3 which records the groups treated and the doses administered, the pain threshold expressed as a pressure exerted in mmHg to cause the pain stimulus (average±S.E.) and a statistical evaluation of the results of the various treated groups by the Student "t" test.

[5] = in vivo; conditions: mouse, sc
Method: The drug (or drugs) under examination was administered sub-cutaneously. The animals were kept under observation for 15 days after the administration.
Ten animals were used for each dose.

[6] = Hot plate test: potentiation of analgesic activity of opiates; format: in vivo, rats; conditions: morphine 2.5 or methadone 1 mg/kg s.c. alone
Method: The method is that described by Eddy et al. (J. Pharmac. Exp. Therm. 107, 385 (1953)).
Groups of five male rats having a weight of about 150 g and which have not been fasting are used.
The animals are placed on a metal plate which is on the bottom of a transparent cylinder heated to 55°±1° C. by an azeotropic boiling mixture (1:1 acetone-ethyl formate). The time which passes between the moment at which the animal is placed on the hot plate and the moment at which it licks its feet or tries to jump out of the cylinder is defined as the reaction time. The control reaction time is measured 10 and 5 minutes before the administration of the drugs and 10, 20, 30, 45, 60, 90 minutes afterwards. The animals are left on the plate for a maximum period of 30 seconds. The response to the administration of the product is considered positive if at least a doubling of the normal reaction time is seen. The results obtained are given in Table 2 which records the groups treated, the doses administered and the stay times on the plate expressed as the number of positive responses over the number treated.

[7] = higher dose alone s.c.: morphine 2, propoxyphene 25, pentazocine 6 mg/kg
[8] = lower dose alone s.c.: morphine 0.5, propoxyphene 7.5, pentazocine 2 mg/kg

Compound: D-ala-methionine-enkephalinamide [DALA]
- % variation in the latency to pain ([1]; 5 min): 61.06 ± 11.8%
- % variation in the latency to pain ([1]; 15 min): 51.04 ± 4.6%
- % variation in the latency to pain ([1]; 30 min): 40.00 ± 9.04%
- % variation in the latency to pain ([1]; 45 min): 25.24 ± 7.7%
- % variation in the latency to pain ([1]; 60 min): 14.68 ± 9.2%
- % variation in the latency to pain ([1]; 90 min): 10.06 ± 8.3%
- Average (0 → 90) % variation in the latency to pain [1]: 33.7 ± 8.3%

Compound: CN1CC[C@]23c4c5ccc(O)c4O[C@H]2[C@@H](O)C=C[C@H]3[C@H]1C5 [Morphine]
- percentage variation in the latency ([2]; 1 h): 58.98 ± 16.3%
- percentage variation in the latency ([2]; 3 h): 67.58 ± 11.1%
- percentage variation in the latency ([2]; 6 h): 30.0 ± 15.3%
- percentage variation in the latency ([2]; 9 h): 38.62 ± 8.7%
- percentage variation in the latency ([2]; 12 h): 23.1 ± 8.6%
- percentage variation in the latency of the pain sensation ([3]; 10 min, morphine 3 or dextropropoxyphene 6 mg/kg alone): 29.0 ± 20.4%
- percentage variation in the latency of the pain sensation ([3]; 20 min, morphine 3 or dextropropoxyphene 6 mg/kg alone): 35.0 ± 9.4%
- percentage variation in the latency of the pain sensation ([3]; 30 min, morphine 3 or dextropropoxyphene 6 mg/kg alone): 71.4 ± 12.1%
- percentage variation in the latency of the pain sensation ([3]; 45 min, morphine 3 or dextropropoxyphene 6 mg/kg alone): 49.3 ± 21.3%
- percentage variation in the latency of the pain sensation ([3]; 60 min, morphine 3 or dextropropoxyphene 6 mg/kg alone): 38.8 ± 23.9%
- percentage variation in the latency of the pain sensation ([3]; 90 min, morphine 3 or dextropropoxyphene 6 mg/kg alone): 38.3 ± 20.1%
- average percentage variation in latency M (1-90') ± S.E. ([3]; mean 1-90 min, morphine 3 or dextropropoxyphene 6 mg/kg alone): 43.62 ± 7.37%

Compound: CC(C)=CCN1CCC2(C)c3cc(O)ccc3CC1C2C (centres unmarked) [Pentazocine]
- t (vs controls) [4, 7]: 6.63
- t (vs controls) [4, 8]: 2.50
- P (vs controls) [4, 7]: < 0.001
- Pain threshold (mmHg) M ± S.E. [4, 7]: 48.6 ± 4.93 mmHg
- P (vs controls) [4, 8]: < 0.05
- Pain threshold (mmHg) M ± S.E. [4, 8]: 27.9 ± 5.71 mmHg

Compound: CCC(=O)O[C@](Cc1ccccc1)(c1ccccc1)[C@H](C)CN(C)C [Dextropropoxyphene]
- t (vs controls) [4, 7]: 3.71
- t (vs controls) [4, 8]: 3.34
- P (vs controls) [4, 7]: < 0.01
- Pain threshold (mmHg) M ± S.E. [4, 7]: 50.7 ± 10.02 mmHg
- P (vs controls) [4, 8]: < 0.05
- Pain threshold (mmHg) M ± S.E. [4, 8]: 37.5 ± 7.12 mmHg
- X, potency ratio with respect to morphine = 1 ([3]; rat, in vivo): 1
- average percentage variation in latency M (1-90') ± S.E. ([3]; rat, in vivo): 33.48 ± 7.16

Compound: CCC(=O)C(CC(C)N(C)C)(c1ccccc1)c1ccccc1 (centres unmarked) [Methadone]
- LD50 at 360 h [5]: 53.5 mg/kg
- positive responses / treated ([6]; 10 min): 1/5
- positive responses / treated ([6]; 20 min): 2/5
- positive responses / treated ([6]; 30 min): 1/5
- positive responses / treated ([6]; 45 min): 2/5
- positive responses / treated ([6]; 60 min): 1/5
- positive responses / treated ([6]; 90 min): 1/5
- A* = Tot. positive X/30 ([6]; total over 10-90 min): 8
